Patent publication US20160296511A1, “LAQUINIMOD FOR REDUCING THALAMIC DAMAGE IN MULTIPLE SCLEROSIS” (Teva Pharmaceutical Industries, Ltd., priority 2012, published 2016)
“Also recorded” adds a separate entry of the source.

Tests used:
subjects with RRMS [1] = assay: ALLEGRO sub-study: evolution of GdE and new T2 lesions into permanent black holes (PBH), frequent MRI group; assay type: in vivo, human; details: for Number of PBH from GdE lesions, adjusted mean (SE) / PBH from GdE lesions, RR (risk ratio) laquinimod vs placebo / Number of PBH from active lesions, adjusted mean (SE) / Number of PBH from new T2 lesions, mean (SE) / PBH from active lesions, RR (risk ratio) laquinimod vs placebo / PBH from new T2 lesions, RR (risk ratio) laquinimod vs placebo: 0.6 mg
Description: A subset of patients in ALLEGRO comprised a “frequent MRI” group for PBH analysis; these patients had MRIs taken at months 3, 6, 12 and 24. Patients in the frequent MRI group with active lesions at baseline or during the study were included in the PBH analysis. A negative binomial regression analysis was used to estimate the mean number of PBH at months 12 and 24 that evolved from GdE and new T2 lesions detected at various time points in the study in the “frequent MRI” subgroup.

[2] = test system: subject afflicted by tremor or spasticity; assay: Example 3: oral laquinimod in treating tremor and spasticity; assay type: in vivo
Protocol: A composition comprising laquinimod as described herein is administered to a subject afflicted by tremor. […] A composition comprising laquinimod as described herein is administered to a subject afflicted by tremor. […] A composition comprising laquinimod as described herein is administered to a subject afflicted by spasticity. […] A composition comprising laquinimod as described herein is administered to a subject afflicted by tremor.

subjects with RRMS [3] = assay: ALLEGRO phase III clinical trial of daily oral laquinimod 0.6 mg in RRMS; assay type: in vivo, human; details: laquinimod 0.6 mg daily oral, 24 months
Protocol: A multinational (24 countries), multicenter (approximately 139 sites), randomized, double-blinded, parallel-group, placebo-controlled clinical trial (“ALLEGRO” or MS-LAQ-301) was conducted to evaluate the efficacy, safety and tolerability of daily oral administration of laquinimod 0.6 mg in subjects with RRMS for a 24 months duration. One thousand one hundred and six (1106) patients were equally randomized to either laquinimod 0.6 mg or placebo and treated in a double-blind manner and baseline characteristics were balanced between groups. The primary endpoint of the study was the number of confirmed relapses during the double-blind treatment period, which corresponds to the annualized relapse rate (ARR—number of relapses divided by total exposure of all patients). Secondary endpoints included disability as measured by Expanded Disability Status Scale (EDSS) changes confirmed at 3 months, and cumulative number of gadolinium enhancing (GdE) and new/enlarging T2 MRI lesions. Double blind treatment phase: 24 months of once-daily oral administration of daily dose of 0.6 mg laquinimod or matching placebo. Eligible subjects were equally randomized 1:1 into one of the following treatment arms: • 1. Laquinimod capsules 0.6 mg: One 0.6 mg laquinimod capsule was administered orally once daily. The 0.6 mg laquinimod capsules contain 0.6 mg of Laquinimod Acid per capsule with meglumine, and were manufactured according to the method disclosed in PCT International Application Publication No. WO/2007/146248, published Dec. 21, 2007 (see, page 10, line 5 to page 11, line 3). • 2. Matching placebo for laquinimod arm: one capsule is administered once daily. The primary endpoint was the number of confirmed relapses during the double-blind study period. […] An event was counted as a relapse if the subject's symptoms were accompanied by observed objective neurological changes consistent with at least one of the following: an increase of at least 0.5 in the EDSS score; an increase of one grade in two or more of the seven functional systems; or an increase of two grades in one functional system. […] Secondary endpoints were disability progression as measured by the EDSS and the MSFC. […] Additional predefined disability endpoints include the proportion of patients without confirmed disability progression at 24 months; confirmed disability progression (defined as change in EDSS scores ≧1.0 points for baseline EDSS 0 to 5.0 or ≧5.5) sustained for six months; the accumulation of physical disability as measured by mean EDSS and the mean change in EDSS from baseline to last observed value (LOV). […]

[4] = PBH at Month 12 from lesions at Baseline
[5] = PBH at Month 12 from lesions at Month 3
[6] = PBH at Month 12 from lesions at Months 3 and 6
[7] = PBH at Month 24 from All lesions
[8] = PBH at Month 24 from lesions at Baseline
[9] = PBH at Month 24 from lesions at Month 3
[10] = PBH at Month 24 from lesions at Months 3, 6, and 12

## CCN(C(=O)c1c(O)c2c(Cl)cccc2n(C)c1=O)c1ccccc1 [Laquinimod]
Subjects with RRMS [1]; [4]
  Number of PBH from GdE lesions, adjusted mean (SE): 0.5 (0.16) [26]
  PBH from GdE lesions, RR (risk ratio) laquinimod vs placebo: 0.53
Subjects with RRMS [1]; [5]
  Number of PBH from GdE lesions, adjusted mean (SE): 0.6 (0.25) [14]
  Number of PBH from active lesions, adjusted mean (SE): 0.41 (0.14) [29]
  Number of PBH from new T2 lesions, mean (SE): 0.40 (0.15) [28]
  PBH from GdE lesions, RR (risk ratio) laquinimod vs placebo: 0.58
  PBH from active lesions, RR (risk ratio) laquinimod vs placebo: 0.44
  PBH from new T2 lesions, RR (risk ratio) laquinimod vs placebo: 0.52
Subjects with RRMS [1]; [6]
  Number of PBH from GdE lesions, adjusted mean (SE): 0.6 (0.18) [25]
  Number of PBH from active lesions, adjusted mean (SE): 0.59 (0.15) [41]
  Number of PBH from new T2 lesions, mean (SE): 0.57 (0.16) [40]
  PBH from GdE lesions, RR (risk ratio) laquinimod vs placebo: 0.45
  PBH from active lesions, RR (risk ratio) laquinimod vs placebo: 0.42
  PBH from new T2 lesions, RR (risk ratio) laquinimod vs placebo: 0.48
Subjects with RRMS [1]; [7]
  Number of PBH from GdE lesions, adjusted mean (SE): 1.0 (0.20) [41]
  Number of PBH from active lesions, adjusted mean (SE): 1.20 (0.19) [55]
  Number of PBH from new T2 lesions, mean (SE): 0.87 (0.17) [51]
  PBH from GdE lesions, RR (risk ratio) laquinimod vs placebo: 0.45
  PBH from active lesions, RR (risk ratio) laquinimod vs placebo: 0.51
  PBH from new T2 lesions, RR (risk ratio) laquinimod vs placebo: 0.52
Subjects with RRMS [1]; [8]
  Number of PBH from GdE lesions, adjusted mean (SE): 0.6 (0.17) [26]
  PBH from GdE lesions, RR (risk ratio) laquinimod vs placebo: 0.65
Subjects with RRMS [1]; [9]
  Number of PBH from GdE lesions, adjusted mean (SE): 0.6 (0.24) [14]
  Number of PBH from active lesions, adjusted mean (SE): 0.47 (0.14) [29]
  Number of PBH from new T2 lesions, mean (SE): 0.43 (0.14) [28]
  PBH from GdE lesions, RR (risk ratio) laquinimod vs placebo: 0.55
  PBH from active lesions, RR (risk ratio) laquinimod vs placebo: 0.45
  PBH from new T2 lesions, RR (risk ratio) laquinimod vs placebo: 0.50
Subjects with RRMS [1]; [10]
  Number of PBH from GdE lesions, adjusted mean (SE): 0.7 (0.19) [32]
  Number of PBH from active lesions, adjusted mean (SE): 0.95 (0.18) [52]
  Number of PBH from new T2 lesions, mean (SE): 0.87 (0.17) [51]
  PBH from GdE lesions, RR (risk ratio) laquinimod vs placebo: 0.44
  PBH from active lesions, RR (risk ratio) laquinimod vs placebo: 0.50
  PBH from new T2 lesions, RR (risk ratio) laquinimod vs placebo: 0.52
Subjects with RRMS [1]; at 12 and 24 months
  Number of PBH evolved from GdE lesions present at baseline, placebo vs laquinimod: no difference
[2]; subject afflicted by spasticity
  Spasticity in the subject: effective to inhibit spasticity; also recorded: effective to reduce spasticity
[2]; subject afflicted by tremor
  Tremor in the subject: effective to inhibit tremor; also recorded: effective to reduce tremor
Subjects with RRMS [3]
  Annualized relapse rates: effectively reduced annualized relapse rates
  Brain atrophy: reduced brain atrophy
  Development of new lesions: reduced the development of new lesions
  Progression of disability: slowed the progression of disability
